Columns and labels:
Kv1.3 potassium channel = biological target: T1, Kv1.3 potassium channel (Homo sapiens, UniProt P22001); experiment: IC50 from whole-cell patch clamp in Jurkat T cells; format: cell-based
T1 construct: gene KCNA3; His-Kv1.3 expressed in 293T cells and purified (gel shift); endogenous Kv1.3 in Jurkat T cells (patch clamp)

mouse Kv1.3 = biological target: T2, mouse Kv1.3 (Mus musculus, UniProt P16390); experiment: whole-cell patch clamp; format: cell-based
T2 construct: gene Kcna3; mouse Kv1.3 stably expressed in L929 cells
T2 sequence (P16390 whole entry): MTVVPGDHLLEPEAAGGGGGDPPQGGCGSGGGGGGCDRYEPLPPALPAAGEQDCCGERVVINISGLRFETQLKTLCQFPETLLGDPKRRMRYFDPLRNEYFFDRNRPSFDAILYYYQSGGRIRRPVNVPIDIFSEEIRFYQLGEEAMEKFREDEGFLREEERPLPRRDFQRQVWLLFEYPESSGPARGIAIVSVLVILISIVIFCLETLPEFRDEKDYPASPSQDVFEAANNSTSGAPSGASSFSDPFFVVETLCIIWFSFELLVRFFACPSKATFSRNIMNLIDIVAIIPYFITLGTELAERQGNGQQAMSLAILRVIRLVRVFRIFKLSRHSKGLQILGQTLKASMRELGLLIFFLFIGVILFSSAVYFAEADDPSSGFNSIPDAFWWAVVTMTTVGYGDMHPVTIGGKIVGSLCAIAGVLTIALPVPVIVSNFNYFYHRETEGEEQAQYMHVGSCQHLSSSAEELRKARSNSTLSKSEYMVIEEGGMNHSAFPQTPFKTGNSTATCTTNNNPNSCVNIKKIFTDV

T1 sequence (P22001 whole entry): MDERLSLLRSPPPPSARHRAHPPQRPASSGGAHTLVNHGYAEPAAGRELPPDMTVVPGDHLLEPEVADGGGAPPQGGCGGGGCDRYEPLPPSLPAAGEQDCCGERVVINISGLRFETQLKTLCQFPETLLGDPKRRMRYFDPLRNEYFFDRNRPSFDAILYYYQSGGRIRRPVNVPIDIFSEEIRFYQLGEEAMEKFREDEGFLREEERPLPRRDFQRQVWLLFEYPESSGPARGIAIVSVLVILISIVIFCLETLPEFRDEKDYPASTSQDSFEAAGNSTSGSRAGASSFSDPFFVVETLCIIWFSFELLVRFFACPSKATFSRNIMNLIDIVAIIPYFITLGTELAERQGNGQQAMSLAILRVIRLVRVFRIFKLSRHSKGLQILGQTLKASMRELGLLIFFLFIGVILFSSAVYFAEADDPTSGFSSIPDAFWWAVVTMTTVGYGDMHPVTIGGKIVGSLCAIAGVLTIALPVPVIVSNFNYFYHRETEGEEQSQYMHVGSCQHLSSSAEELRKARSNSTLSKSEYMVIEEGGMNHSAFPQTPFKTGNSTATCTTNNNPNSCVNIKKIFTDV

IC50 (Kv1.3 potassium channel): 0.3 µM | IC50 (mouse Kv1.3): 0.47 µM
SMILES: CC(C)/N=c1\cc2n(-c3ccc(Cl)cc3)c3ccccc3nc-2cc1Nc1ccc(Cl)cc1 [CLF, clofazimine]

Source: PMC2602975, “Clofazimine Inhibits Human Kv1.3 Potassium Channel by Perturbing Calcium Oscillation in T Lymphocytes” (PLoS ONE, 2008)
